In PubChem BioAssay AID1963840 (Molecular Pharmacology Branch, DTP, NCI, 2024):

Tested on: 695427-040-R-J1-PDC complex spheroid viability
Experiment: Anticancer human tumor 695427-040-R-J1-PDC patient-derived colon adenocarcinoma cell line growth inhibition [POLQ]
Conditions: for IC50: curve of first compound; for viability, T/C: stronger effect = lower value; active means viability on the fitted dose curve at most 10% of control; inactive means the rest
Method in brief: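 Patient-derived tumour cells were co-cultured with HUVEC and mesenchymal stem cells as multicellular spheroids at 37 °C. They were treated with POLQ inhibitors (novobiocin, ART-558, RP6685) alone or combined with other agents. Top concentrations were at or near clinical Cmax (otherwise 10 microM; SN-38 at 1 microM), decreasing in half-log steps.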

[1] = second compound 0.0316 µM, first compound 0.0316 µM
[2] = second compound 0.0316 µM, first compound 0.1 µM
[3] = second compound 0.0316 µM, first compound 0.316 µM
[4] = second compound 0.0316 µM, first compound 1 µM
[5] = second compound 0.0316 µM, first compound 3.16 µM
[6] = second compound 0.0316 µM, first compound 10 µM
[7] = second compound 0.1 µM, first compound 0.0316 µM
[8] = second compound 0.1 µM, first compound 0.1 µM
[9] = second compound 0.1 µM, first compound 0.316 µM
[10] = second compound 0.1 µM, first compound 1 µM
[11] = second compound 0.1 µM, first compound 3.16 µM
[12] = second compound 0.1 µM, first compound 10 µM
[13] = second compound 0.316 µM, first compound 0.0316 µM
[14] = second compound 0.316 µM, first compound 0.1 µM
[15] = second compound 0.316 µM, first compound 0.316 µM
[16] = second compound 0.316 µM, first compound 1 µM
[17] = second compound 0.316 µM, first compound 3.16 µM
[18] = second compound 0.316 µM, first compound 10 µM
[19] = second compound 1 µM, first compound 0.0316 µM
[20] = second compound 1 µM, first compound 0.1 µM
[21] = second compound 1 µM, first compound 0.316 µM
[22] = second compound 1 µM, first compound 1 µM
[23] = second compound 1 µM, first compound 3.16 µM
[24] = second compound 1 µM, first compound 10 µM
[25] = second compound 3.16 µM, first compound 0.0316 µM
[26] = second compound 3.16 µM, first compound 0.1 µM
[27] = second compound 3.16 µM, first compound 0.316 µM
[28] = second compound 3.16 µM, first compound 1 µM
[29] = second compound 3.16 µM, first compound 3.16 µM
[30] = second compound 3.16 µM, first compound 10 µM
[31] = second compound 10 µM, first compound 0.0316 µM
[32] = second compound 10 µM, first compound 0.1 µM
[33] = second compound 10 µM, first compound 0.316 µM
[34] = second compound 10 µM, first compound 1 µM
[35] = second compound 10 µM, first compound 3.16 µM
[36] = second compound 10 µM, first compound 10 µM
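Further: spheroids exposed to compounds for seven days.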
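Wherever viability, T/C is given: 100% = DMSO vehicle control viability.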

CC(C)n1c(=O)n(C)c2cnc3cc(F)c(-c4ccc(OCCCN5CCCCC5)nc4)cc3c21 + Cc1cccc(N(C)C(=O)C2C(O)CCN2c2nc(C)cc(C(F)(F)F)c2C#N)c1
> 10000 nM: IC50 (second compound 0.0316 µM) | IC50 (second compound 0.1 µM) | IC50 (second compound 0.316 µM) | IC50 (second compound 1 µM) | IC50 (second compound 3.16 µM) | IC50 (second compound 10 µM)
inactive: viability, T/C [1] 97.5% | viability, T/C [2] 98.8% | viability, T/C [3] 101% | viability, T/C [4] 111% | viability, T/C [5] 98.3% | viability, T/C [6] 75.8% | viability, T/C [7] 99.3% | viability, T/C [8] 102% | viability, T/C [9] 110% | viability, T/C [10] 108% | viability, T/C [11] 96.8% | viability, T/C [12] 70.3% | viability, T/C [13] 104% | viability, T/C [14] 101% | viability, T/C [15] 106% | viability, T/C [16] 113% | viability, T/C [17] 92.7% | viability, T/C [18] 68.7% | viability, T/C [19] 101% | viability, T/C [20] 102% | viability, T/C [21] 105% | viability, T/C [22] 103% | viability, T/C [23] 102% | viability, T/C [24] 67.2% | viability, T/C [25] 98.5% | viability, T/C [26] 100% | viability, T/C [27] 102% | viability, T/C [28] 98.5% | viability, T/C [29] 98.2% | viability, T/C [30] 67% | viability, T/C [31] 93.5% | viability, T/C [32] 99.9% | viability, T/C [33] 99.6% | viability, T/C [34] 101% | viability, T/C [35] 100% | viability, T/C [36] 55.7%

CC1COCCN1c1cc(-c2ccnn2C)c2ccnc(-c3ccn[nH]3)c2n1 (centres undefined) + Cc1cccc(N(C)C(=O)C2C(O)CCN2c2nc(C)cc(C(F)(F)F)c2C#N)c1
1890 nM: IC50 (second compound 1 µM)
1980 nM: IC50 (second compound 3.16 µM)
2180 nM: IC50 (second compound 0.1 µM)
1910 nM: IC50 (second compound 0.0316 µM)
1360 nM: IC50 (second compound 0.316 µM)
inactive: viability, T/C [1] 97.1% | viability, T/C [2] 83% | viability, T/C [3] 61.4% | viability, T/C [4] 53.4% | viability, T/C [5] 49% | viability, T/C [6] 46.5% | viability, T/C [7] 95.2% | viability, T/C [8] 83.1% | viability, T/C [9] 66.1% | viability, T/C [10] 51.1% | viability, T/C [11] 49.1% | viability, T/C [12] 48.4% | viability, T/C [13] 104% | viability, T/C [14] 83.5% | viability, T/C [15] 65.3% | viability, T/C [16] 46.4% | viability, T/C [17] 49.5% | viability, T/C [18] 46.9% | viability, T/C [19] 89.3% | viability, T/C [20] 77.8% | viability, T/C [21] 59.9% | viability, T/C [22] 46.1% | viability, T/C [23] 52.8% | viability, T/C [24] 49.5% | viability, T/C [25] 97.9% | viability, T/C [26] 78.7% | viability, T/C [27] 66.1% | viability, T/C [28] 48.5% | viability, T/C [29] 49% | viability, T/C [30] 48% | viability, T/C [31] 86.5% | viability, T/C [32] 74.2% | viability, T/C [33] 61.2% | viability, T/C [34] 49.5% | viability, T/C [35] 50.4% | viability, T/C [36] 47.1%
1790 nM: IC50 (second compound 10 µM)
